Assay results as given in ChEMBL document CHEMBL5226387, “A Drimane Meroterpenoid Borate as a Synchronous Ca+ Oscillation Inhibitor from the Coral-Associated Fungus Alternaria sp. ZH-15” (J Nat Prod, 2023).

Experiments:
Type in all cases: functional, cell-based
[1] = Neuroprotective activity in C57BL/6J mouse primary neocortical neurons assessed as inhibition of spontaneous Ca2+ oscillation frequency measured for 15 mins by Fluo-4 dye based fluorescence analysis; conditions: Primary neocortical neuron, 0.25 h
[2] = Neuroprotective activity in C57BL/6J mouse primary neocortical neurons assessed as inhibition of spontaneous Ca2+ oscillation amplitude measured for 15 mins by Fluo-4 dye based fluorescence analysis; conditions: Primary neocortical neuron, 0.25 h
[3] = Neuroprotective activity in C57BL/6J mouse primary neocortical neurons assessed as inhibition of 4-AP-induced spontaneous Ca2+ oscillation frequency treated with compound 15 mins prior to 4-AP challenge and measured after 10 mins by Fluo-4 dye based fluorescence analysis; conditions: Primary neocortical neuron
[4] = Neuroprotective activity in C57BL/6J mouse primary neocortical neurons assessed as inhibition of 4-AP-induced spontaneous Ca2+ oscillation amplitude treated with compound 15 mins prior to 4-AP challenge and measured after 10 mins by Fluo-4 dye based fluorescence analysis; conditions: Primary neocortical neuron

| SMILES | IC50 [1] | IC50 [2] | IC50 [3] | IC50 [4] |
| --- | --- | --- | --- | --- |
| COc1cc(-c2cc3c(c(=O)o2)C[C@@]24OB(O)O[C@]5(CC[C@@]2(C)O3)C(C)(C)C=CC(=O)[C@]45C)cc(OC)c1OC | 15 µM | 16 µM | 12 µM | 34 µM |
| COc1cc(-c2cc3c(c(=O)o2)C[C@]2(O)[C@@]4(C)C(=O)C=CC(C)(C)[C@]4(O)CC[C@@]2(C)O3)cc(OC)c1OC [TERRITREM B] | 8.6 µM | 5.4 µM | 14 µM | 27 µM |
